Reference: ChEMBL document CHEMBL4834417, “Diverse Polycyclic Polyprenylated Acylphloroglucinol Congeners with Anti-Nonalcoholic Steatohepatitis Activity from Hypericum forrestii” (J Nat Prod, 2021)
Active and inactive are the calls of the source.

Experiments:
Format in all cases: functional, cell-based
[1] = test system: L02; assay: Anti-nonalcoholic steatohepatitis activity in FFA-induced human L02 cells assessed as reduction in lipid droplets at 5 uM after 48 hrs by Oil red O staining based assay
[2] = test system: L02; assay: Anti-nonalcoholic steatohepatitis activity in FFA-induced human L02 cells assessed as reduction in lipid droplets after 48 hrs by Oil red O staining based assay; conditions: dose 5-10 µM
[3] = test system: L02; assay: Anti-nonalcoholic steatohepatitis activity in FFA-induced human L02 cells assessed as downregulation of CD36 mRNA expression at 10 uM by QRT-PCR analysis
[4] = test system: L02; assay: Anti-nonalcoholic steatohepatitis activity in FFA-induced human L02 cells assessed as downregulation of FASN mRNA expression at 10 uM by QRT-PCR analysis
[5] = test system: L02; assay: Anti-nonalcoholic steatohepatitis activity in FFA-induced human L02 cells assessed as upregulation of PPARalpha mRNA expression at 10 uM by QRT-PCR analysis
[6] = test system: L02; assay: Anti-nonalcoholic steatohepatitis activity in FFA-induced human L02 cells assessed as upregulation of ACOX1 mRNA expression at 10 uM by QRT-PCR analysis

Measured: Activity

CC(C)=CCC/C(C)=C/C[C@]1(CC=C(C)C)C(=O)C(C(=O)c2ccccc2)=C2OC(C)(C)[C@@H]3C[C@]23C1=O
active: [1] | [2] Dose-Dependent Effect | [3] | [4] | [5] | [6]

CC(C)=CCC[C@]1(C)[C@@H](CC=C(C)C)C[C@]23C[C@H](C(C)(C)O)OC2=C(CC=C(C)C)C(=O)[C@@]1(C(=O)c1ccccc1)C3=O
active: [1] | [2] Dose-Dependent Effect | [3] | [4] | [5] | [6]
